Tested on: MCF-10A normal breast epithelial cells
Assay: Apoptosis induction, annexin V-FITC/PI flow cytometry, MCF-10A
Format: cell-based, human
Settings: especially at 1 µM, 24 h
Experimental: The FITC Annexin V Apoptosis Detection Kit II (BD Pharmingen, San Diego, CA, USA) and a flow cytometer (BD FACSCanto II, BD Biosciences Systems, San Jose, CA, USA) were used in this evaluation. The assay was performed according to the manufacturer’s instructions. Flow cytometer calibration was performed by preparing two controls—a positive and a negative control. […] The negative control was cells that were not treated with any of the proapoptotic agents. First, in the cells treated with the tested compounds as well as the controls, the medium was removed, and the cells were washed twice with cold PBS. Subsequently, the cells were resuspended in the binding buffer included in the kit at a concentration of 1 × 10^6 cells/mL. From each sample, 100 µL of cell suspension was taken and transferred to test tubes, to which 5 µL each of FITC annexin V and propidium iodide (PI) were then added. The contents of the test tubes were gently vortexed and incubated for 15 min at room temperature, protected from light. After the required time, the contents of the test tubes were made up to 500 µL with binding buffer and immediately analyzed in a flow cytometer (10,000 events measured). After the flow cytometer readout, the results were analyzed using the FACSDiva 6.0 software (BD Biosciences Systems, San Jose, CA, USA). […]

CC(=O)C[Se]C(=O)c1cc(C(=O)[Se]CC(C)=O)cc(C(=O)[Se]CC(C)=O)c1 [EDAG-8, Se,Se,Se-tris-(2-oxopropyl) benzene-1,3,5-tris-(carboxyselenoate)]
necrotic cells (in words): increase in the number of necrotic cells
